The subject of this experiment is Mus musculus. Put plainly: Antiinflammatory activity in iv dosed ICR mouse model of CLP-induced sepsis assessed as increase in survival rate. It counts as functional.
As for `CCCNc1nc2nc3c(c(-c4ccc(OC)cc4)c2s1)CCCC3`, the Survival came to 40%. The same measure for `CCCNc1nc2nc3c(c(-c4ccc(OC)cc4)c2s1)CCCCC3`: 40%; for `CCCNc1nc2nc3c(c(-c4ccccc4)c2s1)CCCCC3`: 40%; for `O=[N+]([O-])c1ccc(-c2c3c(nc4nc(N5CCCC5)sc24)CCCC3)cc1`: 40%.

Source of the values: ChEMBL document CHEMBL4418297, “2,5,6,7-tetrasubstituted thiazolo[4,5-b]pyridine derivatives and use thereof” (2018).
